pIC50: −log10 of the molar value.
Test system: KRAS-mutant PDC complex spheroid viability
Test: Anticancer human tumor 186277-243-T-J2-PDC patient-derived colon adenocarcinoma cell line growth inhibition [KRAS2]
Details: for pIC50: curve of first compound; for viability, T/C: stronger effect = lower value
Source text: Multicellular complex tumor spheroid response to RAS pathway inhibitors in combination with a targeted agents in patient-derived cell lines with oncogenic KRAS variants from multiple cancer types
A high-throughput screen of multi-cell type tumor spheroids was designed to identify active combinations of targeted small molecules and KRAS pathway inhibitors. Complex spheroids include a stromal component modeled by human endothelial cells (HUVEC) and fibroblasts modeled by human mesenchymal stem cells (MSCs). The concentration ranges selected for each drug and investigational agent were based upon clinically achievable concentrations if the clinical Cmax of the agent was known.
Compounds. The drugs and investigational agents: BI-3406 (NSC825286), BAY-293 (NSC824723), batoprotafib (TNO155; NSC825523), sotorasib (AMG 510; NSC818433), MRTX1257 (NSC819558), elimusertib (BAY 1895344; NSC800525), molibresib (GSK525762; NSC774829), temuterkib (LY3214996; NSC803410), venetoclax (NSC766270), alisertib (NSC759677), olaparib (NSC753686), talazoparib (NSC767125), erdafitinib (NSC781556), ipatasertib (NSC767898), cabozantinib (NSC761068), nintedanib (NSC756659), abemaciclib (NSC768073), docetaxel (NSC628503), trametinib (NSC758246), and sapanisertib (NSC764658) were obtained from the National Cancer Institute (NCI) Developmental Therapeutics Program Chemical Repository. The FDA-approved anticancer drug set is available from the Developmental Therapeutics Program. […] The stock solutions were prepared in dimethyl sulfoxide (DMSO, Sigma-Aldrich, St. Louis, MO, cat. D2650) at 800-fold the tested concentration and stored at -70 degrees C prior to their use. All drugs and investigational agents were tested over a range starting from a high concentration at or near the clinical Cmax and decreasing in half-log increments. If the clinical Cmax for an agent had not been determined, the highest concentration tested was 10 microM.
Cell Culture. All cells were maintained in an incubator at 37 degrees C and 5% CO2 with 95% humidity. The PDC lines were cultured according to standard operating procedures established by the NCI PDMR (https://pdmr.cancer.gov/sops/default.htm). Briefly, all PDCs were thawed and cultured in Matrigel-coated flasks prepared with a working solution of 1X Ham's F-12 nutrient mix, without supplementation (Invitrogen, Waltham, MA, cat. 11765054), 100 U/mL penicillin-streptomycin (Invitrogen, cat. 15140122), and 2.5% Matrigel (Corning Inc., Corning, NY, cat. 354248) for the first three passages. All PDCs were cultured in complete DMEM/F-12 media containing advanced DMEM/F-12 (Invitrogen, cat. 12634028), 4.9% defined fetal bovine serum, heat inactivated (HyClone Laboratories Inc., Logan, UT, cat. SH30070.03HI), 389 ng/mL hydrocortisone (Sigma-Aldrich, cat. H4001), 9.7 ng/mL human EGF recombinant protein (Invitrogen, cat. PHG0313), 23.4 microg/mL adenine (Sigma-Aldrich, cat. A2786), 97.3 U/mL penicillin-streptomycin (Invitrogen, cat. 15140122), 1.9 mM L-glutamine (Invitrogen, cat. 25030081), and 9.7 microM Y-27632 dihydrochloride (Tocris Bioscience, Bristol, United Kingdom, cat. 1254). The PDCs were cultured in complete DMEM/F12 media without 9.7 microM Y-27632 dihydrochloride for at least two passages prior to the screen. The established cell line HOP-62 was cultured in RPMI 1640 medium, HEPES (Invitrogen, cat. 22400105) with 10% defined fetal bovine serum (HyClone Laboratories Inc., cat. SH30070.03) and 2 mM L-glutamine (Invitrogen, cat. 25030081). The pooled donor HUVEC were cultured in endothelial cell growth medium 2 (PromoCell, Heidelberg, Germany, cat. C-22011) and the hMSC were cultured in mesenchymal stem cell growth medium 2 (PromoCell, cat. C-28009). For all experiments, HUVEC and hMSC were used at passages </=5, while the malignant cell lines were used at passages </=15. […]

[1] = second compound 0.1 µM, first compound 0.01 µM
[2] = second compound 0.1 µM, first compound 0.0316 µM
[3] = second compound 0.1 µM, first compound 0.1 µM
[4] = second compound 0.1 µM, first compound 0.316 µM
[5] = second compound 0.1 µM, first compound 1 µM
[6] = second compound 0.1 µM, first compound 3.16 µM
[7] = second compound 0.316 µM, first compound 0.01 µM
[8] = second compound 0.316 µM, first compound 0.0316 µM
[9] = second compound 0.316 µM, first compound 0.1 µM
[10] = second compound 0.316 µM, first compound 0.316 µM
[11] = second compound 0.316 µM, first compound 1 µM
[12] = second compound 0.316 µM, first compound 3.16 µM
[13] = second compound 1 µM, first compound 0.01 µM
[14] = second compound 1 µM, first compound 0.0316 µM
[15] = second compound 1 µM, first compound 0.1 µM
[16] = second compound 1 µM, first compound 0.316 µM
[17] = second compound 1 µM, first compound 1 µM
[18] = second compound 1 µM, first compound 3.16 µM
[19] = second compound 3.16 µM, first compound 0.01 µM
[20] = second compound 3.16 µM, first compound 0.0316 µM
[21] = second compound 3.16 µM, first compound 0.1 µM
[22] = second compound 3.16 µM, first compound 0.316 µM
[23] = second compound 3.16 µM, first compound 1 µM
[24] = second compound 3.16 µM, first compound 3.16 µM
[25] = second compound 10 µM, first compound 0.01 µM
[26] = second compound 10 µM, first compound 0.0316 µM
[27] = second compound 10 µM, first compound 0.1 µM
[28] = second compound 10 µM, first compound 0.316 µM
[29] = second compound 10 µM, first compound 1 µM
[30] = second compound 10 µM, first compound 3.16 µM
[31] = second compound 0.1 µM, first compound 10 µM
[32] = second compound 0.316 µM, first compound 10 µM
[33] = second compound 1 µM, first compound 10 µM
[34] = second compound 3.16 µM, first compound 10 µM
[35] = second compound 10 µM, first compound 10 µM
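Wherever viability, T/C is given: viability read after seven days of compound exposure; 100% = DMSO vehicle-treated spheroids so lower means less viable.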

SMILES | pIC50 (second compound 0.1 µM) | pIC50 (second compound 0.316 µM) | pIC50 (second compound 1 µM) | pIC50 (second compound 3.16 µM) | pIC50 (second compound 10 µM) | viability, T/C [2] [%] | viability, T/C [3] [%] | viability, T/C [4] [%] | viability, T/C [5] [%] | viability, T/C [6] [%] | viability, T/C [8] [%] | viability, T/C [9] [%] | viability, T/C [10] [%] | viability, T/C [11] [%] | viability, T/C [14] [%] | viability, T/C [15] [%] | viability, T/C [20] [%] | viability, T/C [21] [%] | viability, T/C [26] [%] | viability, T/C [27] [%] | also measured
CC(=O)OC12COC1CC(O)C1(C)C(=O)C(O)C3=C(C)C(OC(=O)C(O)C(NC(=O)OC(C)(C)C)c4ccccc4)CC(O)(C(OC(=O)c4ccccc4)C21)C3(C)C (stereo not given) + C=CC(=O)N1CCN(c2nc(=O)n(-c3c(C)ccnc3C(C)C)c3nc(-c4c(O)cccc4F)c(F)cc23)C(C)C1 | > 8.00 | > 8.00 | > 8.00 | > 8.00 | > 8.00 | 4.61 | 3.18 | 3.25 | 3.42 | 3.34 | 4 | 3.67 | 3.33 | 3.62 | 4.03 | 3.81 | 4.69 | 3.98 | 5.4 | 5.36 | viability, T/C [1]: 6.27%; viability, T/C [7]: 6.24%; viability, T/C [12]: 4%; viability, T/C [13]: 6.82%; viability, T/C [16]: 3.93%; viability, T/C [17]: 4%; viability, T/C [18]: 4.32%; viability, T/C [19]: 6.24%; viability, T/C [22]: 4.34%; viability, T/C [23]: 4.7%; viability, T/C [24]: 4.34%; viability, T/C [25]: 6.5%; viability, T/C [28]: 5.19%; viability, T/C [29]: 5.08%; viability, T/C [30]: 4.88%
CN(C)C/C=C/C(=O)Nc1cc2c(Nc3ccc(F)c(Cl)c3)ncnc2cc1O[C@H]1CCOC1 + C=CC(=O)N1CCN(c2nc(=O)n(-c3c(C)ccnc3C(C)C)c3nc(-c4c(O)cccc4F)c(F)cc23)C(C)C1 | < 7.00 | < 7.00 | < 7.00 | < 7.00 | 7.30 | 122 | 109 | – | – | – | 107 | 112 | – | – | 113 | 105 | 97.7 | 74.4 | 55.2 | 40.6 | viability, T/C (second compound 0.1 µM, first compound 0.000316 µM): 105%; viability, T/C (second compound 0.1 µM, first compound 0.001 µM): 93.7%; viability, T/C (second compound 0.1 µM, first compound 0.00316 µM): 106%; viability, T/C [1]: 102%; viability, T/C (second compound 0.316 µM, first compound 0.000316 µM): 95.8%; viability, T/C (second compound 0.316 µM, first compound 0.001 µM): 97.7%; viability, T/C (second compound 0.316 µM, first compound 0.00316 µM): 99.5%; viability, T/C [7]: 98.4%; viability, T/C (second compound 1 µM, first compound 0.000316 µM): 91.2%; viability, T/C (second compound 1 µM, first compound 0.001 µM): 106%; viability, T/C (second compound 1 µM, first compound 0.00316 µM): 91.5%; viability, T/C [13]: 101%; viability, T/C (second compound 3.16 µM, first compound 0.000316 µM): 93.1%; viability, T/C (second compound 3.16 µM, first compound 0.001 µM): 103%; viability, T/C (second compound 3.16 µM, first compound 0.00316 µM): 100%; viability, T/C [19]: 98.1%; viability, T/C (second compound 10 µM, first compound 0.000316 µM): 79.9%; viability, T/C (second compound 10 µM, first compound 0.001 µM): 68.8%; viability, T/C (second compound 10 µM, first compound 0.00316 µM): 77.3%; viability, T/C [25]: 66.3%
COC(=O)c1ccc2c(C(=Nc3ccc(N(C)C(=O)CN4CCN(C)CC4)cc3)c3ccccc3)c(O)[nH]c2c1 + C=CC(=O)N1CCN(c2nc(=O)n(-c3c(C)ccnc3C(C)C)c3nc(-c4c(O)cccc4F)c(F)cc23)C(C)C1 | 5.67 | 6.05 | 5.80 | 6.34 | 6.69 | 95.6 | 93 | 94.4 | 104 | 25.4 | 87.5 | 96.1 | 97.7 | 44.6 | 96 | 92.9 | 96.1 | 96.8 | 56.1 | 63.4 | viability, T/C [31]: 12.7%; viability, T/C [12]: 19.7%; viability, T/C [32]: 6.92%; viability, T/C [16]: 102%; viability, T/C [17]: 73%; viability, T/C [18]: 13.7%; viability, T/C [33]: 3.67%; viability, T/C [22]: 53.5%; viability, T/C [23]: 33.5%; viability, T/C [24]: 6.72%; viability, T/C [34]: 3.16%; viability, T/C [28]: 43.5%; viability, T/C [29]: 12.5%; viability, T/C [30]: 1.11%; viability, T/C [35]: 0.14%
O=C(c1cc(Cc2n[nH]c(=O)c3ccccc23)ccc1F)N1CCN(C(=O)C2CC2)CC1 + C=CC(=O)N1CCN(c2nc(=O)n(-c3c(C)ccnc3C(C)C)c3nc(-c4c(O)cccc4F)c(F)cc23)C(C)C1 | 5.69 | 5.31 | 5.18 | 5.24 | 5.85 | 108 | 111 | 98.6 | 78 | 31.4 | 105 | 101 | 107 | 96.6 | 96.5 | 96.8 | 95.7 | 106 | 78 | 82.6 | viability, T/C [31]: 22.7%; viability, T/C [12]: 60.6%; viability, T/C [32]: 33.1%; viability, T/C [16]: 103%; viability, T/C [17]: 107%; viability, T/C [18]: 74.6%; viability, T/C [33]: 36.4%; viability, T/C [22]: 101%; viability, T/C [23]: 89.1%; viability, T/C [24]: 67%; viability, T/C [34]: 34.6%; viability, T/C [28]: 68.8%; viability, T/C [29]: 51.4%; viability, T/C [30]: 40.2%; viability, T/C [35]: 17.9%

— PubChem BioAssay AID1963875 (Molecular Pharmacology Branch, DTP, NCI, 2024)
